We go through 32 molecules from US10093670B2, “Azabenzimidazole derivative having AMPK-activating activity” (Shionogi & Co., Ltd., priority 2011, dated 2018).

The assay deals with T1, human AMPK α1β1γ1 enzyme (Homo sapiens, UniProt Q13131+Q9Y478).
T1 construct: purchased Carna Biosciences, Inc
Nature of the assay: Evaluation of AMPK activator, Test Example 1 (mobility-shift kinase assay, FL-Peptide 7). The class given is biochemical. As to conditions: for EC150 (compound concentration showing 150% relative to the control (100%)): human AMPK α1β1γ1, 25° C., 2 hours, 0.2 mM ATP final; for Emax: human AMPK α1β1γ1, relative to control (100%), read-out: Emax (maximum rate of increase in activity within the measurement range). The procedure: The obtained liquid was left to stand for 10 minutes.
The obtained liquid was allowed to react at 25° C. for 2 hours, and 10 μl of 20 mM EDTA was then added thereto to stop the reaction.
To detect phosphorylated fluorescent substrates, the reaction liquid was applied to a measuring device, LabChip EZ Reader II manufactured by Caliper Life Science, Inc., for detecting fluorescence by using differences in mobility due to differences in charge. The setting conditions for the device were pressure, −1.5 PSI; upstream voltage, −2250 V; downstream voltage, −400 V; post sample buffer sip time, 40 seconds; final delay, 120 seconds; and peak order, Product First.
A conversion rate was calculated from the peak heights of the resulting substrate and product. The conversion rate when not containing a compound was used as a control, and a concentration dependent curve was made by plotting the rate of increase in activity to the control at each concentration of a compound.

T1 sequence (Q13131 10-559 limits assumed): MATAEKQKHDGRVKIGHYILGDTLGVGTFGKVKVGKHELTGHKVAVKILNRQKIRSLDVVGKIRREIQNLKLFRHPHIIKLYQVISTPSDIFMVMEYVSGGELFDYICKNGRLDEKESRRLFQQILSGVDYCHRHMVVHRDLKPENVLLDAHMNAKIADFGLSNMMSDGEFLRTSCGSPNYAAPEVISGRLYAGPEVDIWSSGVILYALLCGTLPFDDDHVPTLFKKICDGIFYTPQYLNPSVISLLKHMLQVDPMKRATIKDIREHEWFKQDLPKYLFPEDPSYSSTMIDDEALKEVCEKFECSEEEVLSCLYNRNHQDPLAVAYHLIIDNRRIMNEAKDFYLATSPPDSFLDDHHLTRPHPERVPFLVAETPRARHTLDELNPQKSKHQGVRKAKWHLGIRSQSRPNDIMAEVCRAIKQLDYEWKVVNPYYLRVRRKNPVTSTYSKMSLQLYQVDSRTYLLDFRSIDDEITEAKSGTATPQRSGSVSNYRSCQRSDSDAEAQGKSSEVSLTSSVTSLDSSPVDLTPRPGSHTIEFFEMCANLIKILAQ
T1 sequence (Q9Y478 whole entry): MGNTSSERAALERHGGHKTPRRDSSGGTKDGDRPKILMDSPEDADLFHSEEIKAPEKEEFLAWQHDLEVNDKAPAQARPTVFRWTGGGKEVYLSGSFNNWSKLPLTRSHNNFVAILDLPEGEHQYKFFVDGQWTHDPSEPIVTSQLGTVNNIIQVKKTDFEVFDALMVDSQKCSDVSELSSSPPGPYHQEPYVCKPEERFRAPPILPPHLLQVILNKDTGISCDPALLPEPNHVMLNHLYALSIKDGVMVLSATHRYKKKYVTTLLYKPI
T1 sequence (P54619 whole entry partner): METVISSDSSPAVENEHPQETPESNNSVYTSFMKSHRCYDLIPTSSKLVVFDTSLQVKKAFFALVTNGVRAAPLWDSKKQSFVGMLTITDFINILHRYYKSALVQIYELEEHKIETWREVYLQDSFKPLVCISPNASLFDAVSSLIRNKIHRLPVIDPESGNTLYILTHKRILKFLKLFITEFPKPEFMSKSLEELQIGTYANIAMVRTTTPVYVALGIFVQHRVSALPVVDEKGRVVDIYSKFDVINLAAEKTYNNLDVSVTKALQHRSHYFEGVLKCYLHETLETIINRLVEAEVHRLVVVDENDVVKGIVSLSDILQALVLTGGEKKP

For the molecule `O=C(O)CSc1nc2nc(-c3ccc(N4CCOCC4)cc3)c(Cl)cc2[nH]1` [Compound I-1-4], the “EC150 (compound concentration showing 150% relative to the control (100%))” value amounted to 160 nM and the maximal effect (Emax) (commonly the greatest response seen or fitted, relative to the assay's reference) worked out at 283%.
In the case of `O=C(O)COc1nc2nc(-c3ccc(N4CCOCC4)cc3)c(Cl)cc2[nH]1` [Compound I-1-10], the “EC150 (compound concentration showing 150% relative to the control (100%))” value amounted to 390 nM and the Emax is 270%.
`O=C(O)CN1CCC(Oc2nc3nc(-c4ccc(N5CCOCC5)cc4)c(Cl)cc3[nH]2)CC1.O=CO` [Compound I-1-11]: the “EC150 (compound concentration showing 150% relative to the control (100%))” value was found to be 2100 nM and the Emax is 238%.
Regarding `Oc1cc(COc2nc3nc(-c4ccc(N5CCOCC5)cc4)c(Cl)cc3[nH]2)on1` [Compound I-1-12], the “EC150 (compound concentration showing 150% relative to the control (100%))” value is 320 nM and the Emax was 263%.
Regarding `O=C(COc1nc2nc(-c3ccc(N4CCOCC4)cc3)c(Cl)cc2[nH]1)N1CCC(F)(F)CC1` [Compound I-1-21], the “EC150 (compound concentration showing 150% relative to the control (100%))” value was found to be 730 nM and the Emax stood at 284%.
Regarding `CN1CCC(Oc2nc3nc(-c4ccc(N5CCOCC5)cc4)c(Cl)cc3[nH]2)CC1` [Compound I-1-25], the “EC150 (compound concentration showing 150% relative to the control (100%))” value was 3100 nM and the maximal effect (Emax) amounted to 226%.
Turning to `CC(C#N)Oc1nc2nc(-c3ccc(N4CCOCC4)cc3)c(Cl)cc2[nH]1` (stereo not drawn) [Compound I-1-27], the “EC150 (compound concentration showing 150% relative to the control (100%))” value was determined as 310 nM and the Emax worked out at 226%.
On the same counts, the results for `CC(Oc1nc2nc(-c3ccc(N4CCOCC4)cc3)c(Cl)cc2[nH]1)c1noc(=O)[nH]1` (stereo not drawn) [Compound I-1-28] are 210 nM and 231%.
In the case of `CS(=O)(=O)N1CCC(Oc2nc3nc(-c4ccc(N5CCOCC5)cc4)c(Cl)cc3[nH]2)CC1` [Compound I-1-32], the “EC150 (compound concentration showing 150% relative to the control (100%))” value worked out at 200 nM and the maximal response (Emax) is 280%.
On the same counts, the results for `CC(Oc1nc2nc(-c3ccc(N4CCOCC4)cc3)c(Cl)cc2[nH]1)C(N)=O` (stereo not drawn) [Compound I-1-37] are 910 nM and 228%.
On the same counts, the results for `CC(Sc1nc2nc(-c3ccc(N4CCOCC4)cc3)c(Cl)cc2[nH]1)C(=O)O` (stereo not drawn) [Compound I-1-39] are 160 nM and 258%.
On the same counts, the results for `CC(C)(Sc1nc2nc(-c3ccc(N4CCOCC4)cc3)c(Cl)cc2[nH]1)C(=O)O` [Compound I-1-57] are 140 nM and 277%.
On to `CC(Cc1nc2nc(-c3ccc(N4CCOCC4)cc3)c(Cl)cc2[nH]1)C(=O)O` (stereo not drawn) [Compound I-1-62], for which the “EC150 (compound concentration showing 150% relative to the control (100%))” value worked out at 540 nM and the Emax was 228%.
As for `O=C1CCC(Oc2nc3nc(-c4ccc(N5CCOCC5)cc4)c(Cl)cc3[nH]2)CN1` (stereo not drawn) [Compound I-1-68], the “EC150 (compound concentration showing 150% relative to the control (100%))” value turned out to be 4900 nM and the maximal response (Emax) was found to be 174%.
For `O=C(O)[C@H]1CC[C@H](Oc2nc3nc(-c4ccc(-c5ccccc5)cc4)c(Cl)cc3[nH]2)CC1` [Compound I-2-30], the “EC150 (compound concentration showing 150% relative to the control (100%))” value was 650 nM and the maximal effect (Emax) stood at 178%.
For `NC(=O)[C@H]1CC[C@H](Oc2nc3nc(-c4ccc(N5CCOCC5)cc4)c(Cl)cc3[nH]2)CC1` [Compound I-2-33], in that order: 70 nM and 236%.
Consider `O=C(O)C[C@H]1CC[C@H](Oc2nc3nc(-c4ccc(N5CCOCC5)cc4)c(Cl)cc3[nH]2)CC1` [Compound I-2-40], for which the “EC150 (compound concentration showing 150% relative to the control (100%))” value is 51 nM and the Emax was 293%.
Take `CC(=O)NC1CC=C(c2ccc(-c3nc4nc(O[C@H]5CC[C@H](C(=O)O)CC5)[nH]c4cc3Cl)cc2)CC1` (stereo partly drawn) [Compound I-2-58]: the “EC150 (compound concentration showing 150% relative to the control (100%))” value amounted to 650 nM and the Emax was 169%.
Take `CC(=O)N1CC=C(c2ccc(-c3nc4nc(O[C@H]5CC[C@H](C(=O)O)CC5)[nH]c4cc3Cl)cc2)CC1` [Compound I-2-59]: the “EC150 (compound concentration showing 150% relative to the control (100%))” value is 2300 nM and the Emax was determined as 181%.
On to `O=C(O)[C@H]1CC[C@H](Oc2nc3nc(-c4ccc(-c5ccccc5O)cc4)c(Cl)cc3[nH]2)CC1` [Compound I-2-60], for which the “EC150 (compound concentration showing 150% relative to the control (100%))” value is 49 nM and the Emax came to 205%.
As to `O=C(c1ccc(-c2ccc(-c3nc4nc(O[C@H]5CC[C@H](C(=O)O)CC5)[nH]c4cc3Cl)cc2)cc1)N1CCOCC1` [Compound I-2-61], the “EC150 (compound concentration showing 150% relative to the control (100%))” value was 72 nM and the Emax stood at 189%.
On the same counts, the results for `CN(C)C(=O)N1CC(Oc2nc3nc(-c4ccc(C5=CCC(C(=O)O)CC5)cc4)c(Cl)cc3[nH]2)C1` (stereo not drawn) [Compound I-2-71] are 2400 nM and 193%.
Regarding `O=C(O)C[C@H]1CC[C@H](Oc2nc3nc(-c4ccc(C5=CCOCC5)cc4)c(Cl)cc3[nH]2)CC1` [Compound I-2-85], the “EC150 (compound concentration showing 150% relative to the control (100%))” value is 18 nM and the maximal response (Emax) was found to be 255%.
As to `CC(Oc1nc2nc(-c3ccc(N4CCOCC4)cc3)c(Cl)cc2[nH]1)[C@H]1CC[C@H](C(=O)O)CC1` (stereo partly drawn) [Compound I-2-88], the “EC150 (compound concentration showing 150% relative to the control (100%))” value is listed as 65 nM and the Emax was determined as 288%.
Turning to `CC(Oc1nc2nc(-c3ccc(C4=CCC(C(=O)O)CC4)cc3)c(Cl)cc2[nH]1)c1ccccn1` (stereo not drawn) [Compound I-2-104], the “EC150 (compound concentration showing 150% relative to the control (100%))” value is on record as 6400 nM and the maximal effect (Emax) stood at 161%.
For the molecule `CC(C)(COc1nc2nc(-c3ccc(N4CCOCC4)cc3)c(Cl)cc2[nH]1)C(=O)O` [Compound I-2-109], the “EC150 (compound concentration showing 150% relative to the control (100%))” value is recorded as 250 nM and the maximal effect (Emax) was 212%.
On to `CC(Oc1nc2nc(-c3ccc(N4CCCC4)cc3)c(Cl)cc2[nH]1)c1noc(=O)[nH]1` (stereo not drawn) [Compound I-2-114], for which the “EC150 (compound concentration showing 150% relative to the control (100%))” value worked out at 49 nM and the Emax amounted to 215%.
Take `O=C(O)C1(COc2nc3nc(-c4ccc(N5CCOCC5)cc4)c(Cl)cc3[nH]2)CC1` [Compound I-2-116]: the “EC150 (compound concentration showing 150% relative to the control (100%))” value is listed as 130 nM and the maximum response (Emax) was 229%.
Regarding `O=C(O)[C@H]1C[C@H](Oc2nc3nc(-c4ccc(N5CCOCC5)cc4)c(Cl)cc3[nH]2)C1` [Compound I-2-118], the Emax was 194%.
For `CC(Oc1nc2nc(-c3ccc(N4CCOCC4)cc3)c(Cl)cc2[nH]1)C(C)(C)C(=O)O` (stereo not drawn) [Compound I-2-121], the “EC150 (compound concentration showing 150% relative to the control (100%))” value came out at 160 nM and the maximal response (Emax) stood at 258%.
As for `CN(CCO)C(=O)N1CCC(Oc2nc3nc(-c4ccc(C5=CCC(C(=O)O)CC5)cc4)c(Cl)cc3[nH]2)CC1` (stereo not drawn) [Compound I-3-2], the “EC150 (compound concentration showing 150% relative to the control (100%))” value is 1.4 nM and the Emax was 182%.
As for `CN(C)C(=O)[C@H]1C[C@@H](Oc2nc3nc(-c4ccc(C5=CCC(C(=O)O)CC5)cc4F)c(Cl)cc3[nH]2)C1` (stereo partly drawn) [Compound I-3-3], the “EC150 (compound concentration showing 150% relative to the control (100%))” value came out at 19 nM and the maximum response (Emax) was 271%.
